Data from BindingDB's records for doi:10.1016/s0960-894x(00)00080-9 (Granada, 2000).
pIC50: −log10 of the molar value.

target: Choline kinase (Saccharomyces cerevisiae) (UniProt P20485); assay: Compound was tested […] for inhibition against purified choline kinase obtained from yeast
Sequence (P20485 whole entry, looked up): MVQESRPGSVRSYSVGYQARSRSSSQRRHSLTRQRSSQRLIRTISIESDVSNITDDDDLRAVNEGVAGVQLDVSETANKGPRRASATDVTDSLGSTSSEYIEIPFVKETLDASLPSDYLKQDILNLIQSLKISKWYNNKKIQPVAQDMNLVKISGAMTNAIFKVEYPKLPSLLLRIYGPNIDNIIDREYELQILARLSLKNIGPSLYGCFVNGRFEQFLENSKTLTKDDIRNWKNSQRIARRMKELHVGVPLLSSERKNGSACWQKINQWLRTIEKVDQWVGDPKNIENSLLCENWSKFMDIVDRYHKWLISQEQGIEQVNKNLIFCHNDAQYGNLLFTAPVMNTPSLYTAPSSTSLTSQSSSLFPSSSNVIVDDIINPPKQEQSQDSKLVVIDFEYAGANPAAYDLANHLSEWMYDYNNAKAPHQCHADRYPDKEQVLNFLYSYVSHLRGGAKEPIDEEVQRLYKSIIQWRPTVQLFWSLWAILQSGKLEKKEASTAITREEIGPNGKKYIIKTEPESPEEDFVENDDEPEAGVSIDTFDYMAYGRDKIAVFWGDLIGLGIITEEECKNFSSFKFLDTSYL

Row | pIC50 | SMILES
1 | 4.77 | C=CC[N+](CC=C)=c1ccn(Cc2ccc(CCc3ccc(Cn4ccc(=[N+](CC=C)CC=C)cc4)cc3)cc2)cc1 [4N,4N-diallyl-1-{4-[4-(4-diallylamino-1-pyridiniumylmethyl)phenethyl]benzyl}-4-pyridiniumamine dibromide]
2 | < 3.00 | N#Cc1cc[n+](Cc2ccc(CCc3ccc(C[n+]4ccc(C#N)cc4)cc3)cc2)cc1 [1-{4-[4-(4-cyano-1-pyridiniumylmethyl)phenethyl]benzyl}-4-pyridiniumcarbonitrile dibromide]
3 | 5.02 | c1cc(Cn2ccc(=[N+]3CCCCC3)cc2)ccc1CCc1ccc(Cn2ccc(=[N+]3CCCCC3)cc2)cc1 [1,2-di[4-(4-hexahydro-1-pyridinyl-1-pyridiniumylmethyl)phenyl]ethane dibromide]
4 | 4.00 | OCc1cc[n+](Cc2ccc(CCc3ccc(C[n+]4ccc(CO)cc4)cc3)cc2)cc1 [1-{4-[4-(4-hydroxymethyl-1-pyridiniumylmethyl)phenethyl]benzyl}-4-pyridiniumylmethanol dibromide]
5 | 4.77 | C[N+](C)=c1ccn(Cc2ccc(CCc3ccc(Cn4ccc(=[N+](C)C)cc4)cc3)cc2)cc1 [4N,4N-dimethyl-1-{4-[4-(4-dimethylamino-1-pyridiniumylmethyl)phenethyl]benzyl}-4-pyridiniumamine dibromide]
6 | 4.82 | c1cc(Cn2ccc(=[N+]3CCCCCC3)cc2)ccc1CCc1ccc(Cn2ccc(=[N+]3CCCCCC3)cc2)cc1 [1,2-di{4-[4-(1-azepanyl)-1-pyridiniumylmethyl]phenyl}ethane dibromide]
7 | 4.64 | N=c1ccn(Cc2ccc(CCc3ccc(Cn4ccc(=N)cc4)cc3)cc2)cc1 [1-{4-[4-(4-amino-1-pyridiniumylmethyl)phenethyl]benzyl}-4-pyridiniumamine dibromide]
8 | 4.00 | Cc1cc[n+](Cc2ccc(CCc3ccc(C[n+]4ccc(C)cc4)cc3)cc2)cc1 [1,2-di[4-(4-methyl-1-pyridiniumylmethyl)phenyl]ethane dibromide]
9 | 4.70 | c1cc(Cn2ccc(=[N+]3CCCC3)cc2)ccc1CCc1ccc(Cn2ccc(=[N+]3CCCC3)cc2)cc1 [1,2-di[4-(4-tetrahydro-1H-1-pyrrolyl-1-pyridiniumylmethyl)phenyl]ethane dibromide]
10 | 3.86 | O=C(O)c1cc[n+](Cc2ccc(CCc3ccc(C[n+]4ccc(C(=O)O)cc4)cc3)cc2)cc1 [1-{4-[4-(4-carboxy-1-pyridiniumylmethyl)phenethyl]benzyl}-4-pyridiniumcarboxylic acid dibromide]
